Data on twelve molecules can be found in patent US9499550B2 (BRISTOL-MYERS SQUIBB COMPANY, priority 2012, dated 2016).

Experiment [1] relates to HCV genotype 1a (H77 strain) replicon in HUH-7 cells. The experiment is described as follows: HCV replicon luciferase reporter assay, genotype 1a. The experiment is classed as cell-based. As to conditions: Hepatitis C virus, Huh-7, 72 h, HCV genotype 1a replicon luciferase assay, 3 days incubation, range class, read-out: LE_1a (EC50, range). The procedure, abridged: (§1)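 Replicon inhibition for both genotypes was measured as Renilla luciferase signal (EnduRen, 7.5 μM final, 2 h) after 3-day, 37° C exposure of replicon-bearing HUH-7 cells in 4% FCS DMEM, 0.5% DMSO. The 1b construct carries S1179I; the 1a H77 construct carries P1496L and S2204I. Twenty-point, 3-fold dilutions were fitted four-parametrically for EC50, and CC50 was taken from multiplexed Cell Titer-Blue.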
A general note: In antiviral work, replicon cells carry a viral genome segment that copies itself.

Experiment [2] has as its system HCV genotype 1b (Con1) replicon in HUH-7 cells. The experiment is described as follows: HCV replicon luciferase reporter assay, genotype 1b. The class given is cell-based. As to conditions: Hepatitis C virus, Huh-7, 72 h, HCV genotype 1b replicon luciferase assay, 3 days incubation, range class, read-out: LE_1b (EC50, range). In short, it runs like this: as §1

Where two headings read alike, the source gives them in different places.

What is called EC50 is the concentration needed to bring the measured effect to its halfway point. `COc1ccc2c(O[C@@H]3C[C@H]4C(=O)N[C@]5(C(=O)NS(=O)(=O)C6(CF)CC6)C[C@H]5/C=C\CC[C@@H](C)C[C@@H](C)[C@H](NC(=O)OC(C)(C)C(C)(F)F)C(=O)N4C3)nc(OC)cc2c1` [Compound 1128]: the EC50 in experiment [1] (GETYPE1A) and in experiment [2] (GETYPE1B) was under 5.46 nM in each case.
For the molecule `COc1ccc2c(O[C@@H]3C[C@H]4C(=O)N[C@]5(C(=O)NS(=O)(=O)C6(CF)CC6)C[C@H]5/C=C\CC[C@@H](C)C[C@@H](C)[C@H](NC(=O)OC5COC5)C(=O)N4C3)nc(OC)cc2c1` [Compound 1129, oxetan-3-yl ((2R,6S,7R,9R,13aS,14aR,16aS,Z)-2-((3,6-dimethoxyisoquinolin-1-yl)oxy)-14a-(((1-(fluoromethyl)cyclopropyl)sulfonyl)carbamoyl)-7,9-dimethyl-5,16-dioxo-1,2,3,5,6,7,8,9,10,11,13a,14,14a,15,16,16a-hexadecahydrocyclopropa[e]pyrrolo[1,2-a][1,4]diazacyclopentadecin-6-yl)carbamate], the EC50 in experiment [1] and in experiment [2] was under 5.46 nM throughout.
As to `COc1ccc2c(O[C@@H]3C[C@H]4C(=O)N[C@]5(C(=O)NS(=O)(=O)C6(C)CC6)C[C@H]5/C=C\CC[C@H](C)C[C@@H](C)[C@H](NC(=O)OC(C)(C)C)C(=O)N4C3)nc(OC)cc2c1` [Compound 1130, tert-butyl ((2R,6S,7R,9S,13aS,14aR,16aS,Z)-2-((3,6-dimethoxyisoquinolin-1-yl)oxy)-7,9-dimethyl-14a-(((1-methylcyclopropyl)sulfonyl)carbamoyl)-5,16-dioxo-1,2,3,5,6,7,8,9,10,11,13a,14,14a,15,16,16a-hexadecahydrocyclopropa[e]pyrrolo[1,2-a][1,4]diazacyclopentadecin-6-yl)carbamate], the EC50 in experiment [1] and in experiment [2] was under 5.46 nM in each case.
As to `COc1ccc2c(O[C@@H]3C[C@H]4C(=O)N[C@]5(C(=O)NS(=O)(=O)C6(C)CC6)C[C@H]5/C=C\CC[C@@H](C)C[C@@H](C)[C@H](NC(=O)OC(C)(C)C)C(=O)N4C3)nc(OC)cc2c1` [Compound 1131, tert-butyl ((2R,6S,7R,9R,13aS,14aR,16aS,Z)-2-((3,6-dimethoxyisoquinolin-1-yl)oxy)-7,9-dimethyl-14a-(((1-methylcyclopropyl)sulfonyl)carbamoyl)-5,16-dioxo-1,2,3,5,6,7,8,9,10,11,13a,14,14a,15,16,16a-hexadecahydrocyclopropa[e]pyrrolo[1,2-a][1,4]diazacyclopentadecin-6-yl)carbamate], the EC50 in experiment [1] and in experiment [2] was under 5.46 nM each time.
As for `COc1ccc2c(O[C@@H]3C[C@H]4C(=O)N[C@]5(C(=O)NS(=O)(=O)C6(C)CC6)C[C@H]5/C=C\CC[C@H](C)C[C@@H](C)[C@H](NC(=O)OC(C)(C)C(F)(F)F)C(=O)N4C3)nc(OC)cc2c1` [Compound 1132, 1,1,1-trifluoro-2-methylpropan-2-yl((2R,6S,7R,9S,13aS,14aR,16aS,Z)-2-((3,6-dimethoxyisoquinolin-1-yl)oxy)-7,9-dimethyl-14a-(((1-methylcyclopropyl)sulfonyl)carbamoyl)-5,16-dioxo-1,2,3,5,6,7,8,9,10,11,13a,14,14a,15,16,16a-hexadecahydrocyclopropa[e]pyrrolo[1,2-a][1,4]diazacyclopentadecin-6-yl)carbamate], the EC50 in experiment [1] and in experiment [2] was under 5.46 nM throughout.
Take `COc1ccc2c(O[C@@H]3C[C@H]4C(=O)N[C@]5(C(=O)NS(=O)(=O)C6(C)CC6)C[C@H]5/C=C\CC[C@@H](C)C[C@@H](C)[C@H](NC(=O)OC(C)(C)C(F)(F)F)C(=O)N4C3)nc(OC)cc2c1` [Compound 1133, 1,1,1-trifluoro-2-methylpropan-2-yl((2R,6S,7R,9R,13aS,14aR,16aS,Z)-2-((3,6-dimethoxyisoquinolin-1-yl)oxy)-7,9-dimethyl-14a-(((1-methylcyclopropyl)sulfonyl)carbamoyl)-5,16-dioxo-1,2,3,5,6,7,8,9,10,11,13a,14,14a,15,16,16a-hexadecahydrocyclopropa[e]pyrrolo[1,2-a][1,4]diazacyclopentadecin-6-yl)carbamate]: the EC50 in experiment [1] and in experiment [2] was under 5.46 nM each time.
Take `CCN(C)c1cc2cc(OC)ccc2c(O[C@@H]2C[C@H]3C(=O)N[C@]4(C(=O)NS(=O)(=O)C5(CF)CC5)C[C@H]4/C=C\CC[C@H](C)C[C@@H](C)[C@H](NC(=O)OC(C)(C)C)C(=O)N3C2)n1` [Compound 1134, tert-butyl ((2R,6S,7R,9S,13aS,14aR,16aS,Z)-2-((3-(ethyl(methyl)amino)-6-methoxyisoquinolin-1-yl)oxy)-14a-(((1-(fluoromethyl)cyclopropyl)sulfonyl)carbamoyl)-7,9-dimethyl-5,16-dioxo-1,2,3,5,6,7,8,9,10,11,13a,14,14a,15,16,16a-hexadecahydrocyclopropa[e]pyrrolo[1,2-a][1,4]diazacyclopentadecin-6-yl)carbamate]: the EC50 in experiment [1] and in experiment [2] was over 87.4 nM in each case.
As to `CCN(C)c1cc2cc(OC)ccc2c(O[C@@H]2C[C@H]3C(=O)N[C@]4(C(=O)NS(=O)(=O)C5(CF)CC5)C[C@H]4/C=C\CC[C@@H](C)C[C@@H](C)[C@H](NC(=O)OC(C)(C)C)C(=O)N3C2)n1` [Compound 1135, tert-butyl ((2R,6S,7R,9R,13aS,14aR,16aS,Z)-2-((3-(ethyl(methyl)amino)-6-methoxyisoquinolin-1-yl)oxy)-14a-(((1-(fluoromethyl)cyclopropyl)sulfonyl)carbamoyl)-7,9-dimethyl-5,16-dioxo-1,2,3,5,6,7,8,9,10,11,13a,14,14a,15,16,16a-hexadecahydrocyclopropa[e]pyrrolo[1,2-a][1,4]diazacyclopentadecin-6-yl)carbamate], the values for the EC50 in experiment [1] and in experiment [2] were 4.82 to 103 nM and under 5.46 nM, respectively.
On to `CCN(C)c1cc2cc(OC)ccc2c(O[C@@H]2C[C@H]3C(=O)N[C@]4(C(=O)NS(=O)(=O)C5(CF)CC5)C[C@H]4/C=C\CC[C@H](C)C[C@@H](C)[C@H](NC(=O)OC(C)(C)C(F)(F)F)C(=O)N3C2)n1` [Compound 1136, 1,1,1-trifluoro-2-methylpropan-2-yl((2R,6S,7R,9S,13aS,14aR,16aS,Z)-2-((3-(ethyl(methyl)amino)-6-methoxyisoquinolin-1-yl)oxy)-14a-(((1-(fluoromethyl)cyclopropyl)sulfonyl)carbamoyl)-7,9-dimethyl-5,16-dioxo-1,2,3,5,6,7,8,9,10,11,13a,14,14a,15,16,16a-hexadecahydrocyclopropa[e]pyrrolo[1,2-a][1,4]diazacyclopentadecin-6-yl)carbamate], for which the EC50 in experiment [1] and in experiment [2] was over 87.4 nM in each case.
For the molecule `CCN(C)c1cc2cc(OC)ccc2c(O[C@@H]2C[C@H]3C(=O)N[C@]4(C(=O)NS(=O)(=O)C5(CF)CC5)C[C@H]4/C=C\CC[C@@H](C)C[C@@H](C)[C@H](NC(=O)OC(C)(C)C(F)(F)F)C(=O)N3C2)n1` [Compound 1137, 1,1,1-trifluoro-2-methylpropan-2-yl((2R,6S,7R,9R,13aS,14aR,16aS,Z)-2-((3-(ethyl(methyl)amino)-6-methoxyisoquinolin-1-yl)oxy)-14a-(((1-(fluoromethyl)cyclopropyl)sulfonyl)carbamoyl)-7,9-dimethyl-5,16-dioxo-1,2,3,5,6,7,8,9,10,11,13a,14,14a,15,16,16a-hexadecahydrocyclopropa[e]pyrrolo[1,2-a][1,4]diazacyclopentadecin-6-yl)carbamate], the EC50 in experiment [1] is 4.82 to 103 nM; in experiment [2], under 5.46 nM.
Take `CCN(C)c1cc2cc(OC)ccc2c(O[C@@H]2C[C@H]3C(=O)N[C@]4(C(=O)NS(=O)(=O)C5(CF)CC5)C[C@H]4/C=C\CC[C@H](C)C[C@@H](C)[C@H](NC(=O)OC(C)(C)C(C)(F)F)C(=O)N3C2)n1` [Compound 1138, 3,3-difluoro-2-methylbutan-2-yl((2R,6S,7R,9S,13aS,14aR,16aS,Z)-2-((3-(ethyl(methyl)amino)-6-methoxyisoquinolin-1-yl)oxy)-14a-(((1-(fluoromethyl)cyclopropyl)sulfonyl)carbamoyl)-7,9-dimethyl-5,16-dioxo-1,2,3,5,6,7,8,9,10,11,13a,14,14a,15,16,16a-hexadecahydrocyclopropa[e]pyrrolo[1,2-a][1,4]diazacyclopentadecin-6-yl)carbamate]: the EC50 in experiment [1] and in experiment [2] was over 87.4 nM in each case.
With `CCN(C)c1cc2cc(OC)ccc2c(O[C@@H]2C[C@H]3C(=O)N[C@]4(C(=O)NS(=O)(=O)C5(CF)CC5)C[C@H]4/C=C\CC[C@@H](C)C[C@@H](C)[C@H](NC(=O)OC(C)(C)C(C)(F)F)C(=O)N3C2)n1` [Compound 1139, 3,3-difluoro-2-methylbutan-2-yl((2R,6S,7R,9R,13aS,14aR,16aS,Z)-2-((3-(ethyl(methyl)amino)-6-methoxyisoquinolin-1-yl)oxy)-14a-(((1-(fluoromethyl)cyclopropyl)sulfonyl)carbamoyl)-7,9-dimethyl-5,16-dioxo-1,2,3,5,6,7,8,9,10,11,13a,14,14a,15,16,16a-hexadecahydrocyclopropa[e]pyrrolo[1,2-a][1,4]diazacyclopentadecin-6-yl)carbamate], the EC50 in experiment [1] and in experiment [2] was 4.82 to 103 nM throughout.
